pKi: −log10 of the molar value. Where a name gives a salt, the structure may show the parent alone.
Each compound was assayed against T1, Thrombin prepared from human plasma (Homo sapiens, UniProt P00734) (assay: In vitro enzyme assay for thrombin inhibition constants (Chromozym TH substrate, Dixon plot)). Conditions: pH 7.8, room temperature.
T1 construct: Thrombin used in this test was prepared from human plasma; from tissue; host or cells: human plasma
Assay type: biochemical
Procedure: In vitro Enzyme Assays for Determining Inhibition Constants
The activity of thrombin was measured spectrophotometrically using tosyl-Gly-Pro-Arg-p-nitroanilide acetate (Chromozym TH, Boehringer Mannheim) as a substrate. […] Each compound was dissolved in DMSO to make a 1 mM stock solution and dilutions were made thereof with assay buffer (0.1 M Tris HCl, 0.15 M NaCl, 0.1% polyethylene glycol 8000, pH 7.8). Different concentrations of inhibitor were mixed with […] of thrombin in 0.8 mL of the buffer. The mixture was incubated for 10 min at room temperature before adding 0.2 mL of the substrate to a final concentration of 20 μM. […] A graph for the reciprocal value of initial velocity to the inhibitor concentration was derived from progress curves by fitting the data using a linear regression program.

| SMILES | pKi |
| --- | --- |
| N=C(N)c1ccc(CNC(=O)[C@@H]2CCCN2C(=O)[C@H](NS(=O)(=O)Cc2ccccc2)C(c2ccccc2)c2ccccc2)s1 [Example 6, N-benzylsulfonyl-D-diphenylalanyl-L-prolyl-[(5-amidino-2-thienyl)methyl]amide.TFA] | 10.68 |
| CC(C)(C)OC(=O)N[C@@H](C(=O)N1CCC[C@H]1C(=O)NCc1ccc(C(=N)N)s1)C(c1ccccc1)c1ccccc1 [Example 7, N-t-butoxycarbonyl-D-diphenylalanyl-L-prolyl-[(5-amidino-2-thienyl)methyl]amide.TFA] | 11.15 |
| N=C(N)c1ccc(CNC(=O)[C@@H]2CCCN2C(=O)[C@@H](Cc2ccc(Cl)c(Cl)c2)NS(N)(=O)=O)s1 [Example 9, N-aminosulfonyl-D-3,4-dichlorophenylalanyl-L-prolyl-[(5-amidino-2-thienyl)methyl]amide.TFA] | 10.19 |
| COC(=O)N[C@@H](C(=O)N1CCC[C@H]1C(=O)NCc1ccc(C(=N)N)s1)C(C1CCCCC1)C1CCCCC1 [Example 10, N-methoxycarbonyl-D-dicyclohexylalanyl-L-prolyl-[(5-amidino-2-thienyl)methyl]amide.TFA] | 10.28 |
| N=C(N)c1ccc(CNC(=O)[C@@H]2CCCN2C(=O)[C@H](NS(=O)(=O)NC2CCCCC2)C(c2ccccc2)c2ccccc2)s1 [Example 20, N-cyclohexylsulfamoyl-D-diphenylalanyl-L-prolyl-[(5-amidino-2-thienyl)methyl]amide.TFA] | 10.96 |
| C=CCOC(=O)N[C@@H](C(=O)N1CCC[C@H]1C(=O)NCc1ccc(C(=N)N)s1)C(c1ccccc1)c1ccccc1 [Example 21, N-allyloxycarbonyl-D-diphenylalanyl-L-prolyl-[(5-amidino-2-thienyl)methyl]amide.TFA] | 10.77 |
| CS(=O)(=O)N[C@H](CC1CCCCC1)C(=O)N1CCC[C@H]1C(=O)NCc1ccc(C(=N)N)s1 [Example 22, N-methylsulfonyl-D-cyclohexylalanyl-L-prolyl-[(5-amidino-2-thienyl)methyl]amide.TFA] | 10.70 |
| N=C(N)c1ccc(CNC(=O)[C@@H]2CCCN2C(=O)[C@@H](CC2CCCCC2)NS(=O)(=O)Cc2ccccc2)s1 [Example 23, N-benzylsulfonyl-D-cyclohexylalany-L-prolyl-[(5-amidino-2-thienyl)methyl]amide.TFA] | 10.52 |
| N=C(N)c1ccc(CNC(=O)[C@@H]2CCCN2C(=O)[C@@H](CC2CCCCC2)NS(=O)(=O)NC2CCCCC2)s1 [Example 24, N-cyclohexylsulfamoyl-D-cyclohexylalanyl-L-prolyl-[(5-amidino-2-thienyl)methyl]amide.TFA] | 10.62 |
| CNS(=O)(=O)N[C@H](CC1CCCCC1)C(=O)N1CCC[C@H]1C(=O)NCc1ccc(C(=N)N)s1 [Example 25, N-methylsulfamoyl-D-cyclohexylalanyl-L-prolyl-[(5-amidino-2-thienyl)methyl]amide.TFA] | 10.28 |
| CS(=O)(=O)N[C@@H](C(=O)N1CCC[C@H]1C(=O)NCc1csc(C(=N)N)c1)C1CCCCC1 [Example 26, N-methylsulfonyl-D-cyclohexylglycinyl-L-prolyl-[(5-amidino-3-thienyl)methyl]amide.TFA] | 8.34 |
| COC(=O)N[C@@H](C(=O)N1CCC[C@H]1C(=O)NCc1csc(C(=N)N)c1)C1CCCCC1 [Example 27, N-methoxycarbonyl-D-cyclohexylglycinyl-L-prolyl-[(5-amidino-3-thienyl)methyl]amide.TFA] | 7.86 |
| CC(C)(C)OC(=O)CN[C@@H](C(=O)N1CCC[C@H]1C(=O)NCc1ccc(C(=N)N)s1)C(c1ccccc1)c1ccccc1 [Example 28, N-(t-butoxycarbonyl)methyl-D-diphenylalanyl-L-prolyl-[(5-amidino-2-thienyl)methyl]amide.2AcOH] | 10.21 |
| CN(CC(=O)O)[C@@H](C(=O)N1CCC[C@H]1C(=O)NCc1ccc(C(=N)N)s1)C(c1ccccc1)c1ccccc1 [Example 30, N-methyl-N-carboxymethyl-D-diphenylalanyl-L-prolyl-[(5-amidino-2-thienyl)methyl]amide.2TFA] | 11.52 |
| N=C(N)c1ccc(CNC(=O)[C@@H]2CCCN2C(=O)[C@H](NS(=O)(=O)O)C(c2ccccc2)c2ccccc2)s1 [Example 31, N-hydroxysulfonyl-D-diphenylalanyl-L-prolyl-[(5-amidino-2-thienyl)methyl]amide.TFA] | 10.00 |
| CS(=O)(=O)N[C@@H](C(=O)N1CC[C@H]1C(=O)NCc1ccc(C(=N)N)s1)C(c1ccccc1)c1ccccc1 [Example 32, N-methylsulfonyl-D-diphenylalanyl-L-azetidine-2-carboxyl-[(5-amidino-2-thienyl)methyl]amide.TFA] | 10.28 |

Now from value to compound:

| pKi | SMILES |
| --- | --- |
| 8.33 | NCc1ccc(CNC(=O)[C@@H]2CCCN2C(=O)[C@H](NS(N)(=O)=O)C(c2ccccc2)c2ccccc2)s1 [Example 2, N-aminosulfonyl-D-diphenylalanyl-L-prolyl-[(5-aminomethyl-2-thienyl)methyl]amide.HCl] |
| 9.28 | CS(=O)(=O)N[C@@H](C(=O)N1CCC[C@H]1C(=O)NCc1ccc(/C(N)=N/N)s1)C(c1ccccc1)c1ccccc1 [Example 4, N-methylsulfonyl-D-diphenylalanyl-L-prolyl-[(5-amidrazono-2-thienyl)methyl]amide.TFA] |
| 10.40 | CS(=O)(=O)N[C@@H](C(=O)N1CCC[C@H]1C(=O)NCc1cc(C(=N)N)cs1)C(c1ccccc1)c1ccccc1 [Example 12, N-methylsulfonyl-D-diphenylalanyl-L-prolyl-[(4-amidino-2-thienyl)methyl]amide.TFA] |
| 10.14 | CS(=O)(=O)N[C@@H](C(=O)N1CCC[C@H]1C(=O)NCc1cc(CN)cs1)C(c1ccccc1)c1ccccc1 [Example 13, N-methylsulfonyl-D-diphenylalanyl-L-prolyl-[(4-aminomethyl-2-thienyl)methyl]amide.HCl] |
| 10.35 | CS(=O)(=O)N[C@@H](C(=O)N1CCC[C@H]1C(=O)NCc1csc(C(=N)N)c1)C(c1ccccc1)c1ccccc1 [Example 16, N-methylsulfonyl-D-diphenylalanyl-L-prolyl-[(5-amidino-3-thienyl)methyl]amide.TFA] |
| 9.39 | CS(=O)(=O)N[C@@H](C(=O)N1CCC[C@H]1C(=O)NCc1csc(C(=N)NN)c1)C(c1ccccc1)c1ccccc1 [Example 17, N-methylsulfonyl-D-diphenylalanyl-L-prolyl-[(5-amidrazono-3-thienyl)methyl]amide.TFA] |
| 8.21 | CS(=O)(=O)N[C@@H](C(=O)N1CCC[C@H]1C(=O)NCc1csc(CN)c1)C(c1ccccc1)c1ccccc1 [Example 18, N-methylsulfonyl-D-diphenylalanyl-L-prolyl-[(5-aminomethyl-3-thienyl)methyl]amide.TFA] |
| 9.92 | Cc1sc(CNC(=O)[C@@H]2CCCN2C(=O)[C@H](NS(C)(=O)=O)C(c2ccccc2)c2ccccc2)cc1C(=N)N [Example 33, N-methylsulfonyl-D-diphenylalanyl-L-prolyl-[(4-amidino-5-methyl-2-thienyl)methyl]amide.TFA] |
| 8.85 | CS(=O)(=O)N[C@@H](C(=O)N1CCC[C@H]1C(=O)NCc1ccc(C(=N)N)o1)C(c1ccccc1)c1ccccc1 [Example 34, N-methylsulfonyl-D-diphenylalanyl-L-prolyl-[(5-amidino-2-furanyl)methyl]amide.TFA] |

From patent US6864249B2, “Piperidine and azetidine thrombin inhibitors” (LG Life Sciences, Ltd., priority 1998, dated 2005)
